In US6822146B2, “Sulfonylurea-tolerant sunflower line M7” (priority 2000, dated 2004):

Tests used:
M5M11 = assay: Test B greenhouse phytotoxicity, M5M11; format: in vivo, sunflower; details: in vivo
Method in brief: (§1)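 Formulated ALS-inhibiting herbicides sprayed post-emergence at the 4-leaf stage on homozygous mutant sunflower inbreds (M5 maintainers and BC4 male-sterile back-crosses) in the greenhouse, at rates commonly used in registered crops. Two replicates; crop injury rated as % phytotoxicity, 0% meaning no injury.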

M5M12 = assay: Test B greenhouse phytotoxicity, M5M12; format: in vivo, sunflower; details: in vivo
Method in brief: as §1

[1] = test system: Orobanche cumana (Race F); assay: Test F sequential application to control Orobanche cumana; format: in vivo
Method: A greenhouse experiment was performed to identify the best sequential program compared to straight application of tribenuron-methyl or metsulfuron-methyl for control of Orobanche cumana (Race F). The dose range for optimum efficacy was also studied. Both herbicides were used as formulated compositions. […] BC4-M5M7×PHA155 is referred to below as “Hybrid 7”, and BC4-M5M12×PHA155 is referred to below as “Hybrid 12”.
Seed coating treatment was performed as described for Test D. Post-emergence treatments were applied at the 2-4 leaf stage of sunflower (corresponding to early stage of Orobanche attachment; identified as “T1”), the 6 leaf stage of sunflower (corresponding to the mid stage of Orobanche attachment; nodules <5 mm diameter; identified as “T2”) and 8 leaf stage of sunflower (corresponding to late stage of Orobanche attachment; identified as “T3”).
The efficacy was evaluated visually as described for Test D except that the efficacy was assessed ten days later than for Tests D and E. The later evaluation allowed observing any reduction of efficacy due to late Orobanche emergence or re-growth of treated nodules. Efficacy in controlling Orobanche attached to roots was evidenced by nodules comprising black necrotic tissues with no apparent active meristematic area. These nodules could be easily crushed between fingers.

Chenopodium album = assay: Test H weed control, field plots; format: in vivo; details: 36 days after treatment; g a.i./ha: tribenuron-methyl 22.5, metsulfuron-methyl 6, ethametsulfuron-methyl 16, imazapyr isopropylamine salt 15, aclonifen 1200
Description: (§2) Field plots (2 m×5 m) were tilled to remove weed cover and then seeded in rows with the following weeds: Capsella bursa pastoris, Atriplex patula, Chenopodium album, Stellaria media, Mecurialis annua, Polygonum persicaria, Amaranthus retroflexus, Polygonum convolvulus, Polygonum aviculare, Viola arvensis, Matricaria inodora, Anagallis arvensis, Sinapis arvensis, Setaria viridis, Solanum nigrum and Echinochloa crusgalli. After 21 days from sowing, at which time the weeds had reached the 2- to 6-leaf stage, herbicide treatments were applied to the plots according to a complete randomized block design, with each herbicide treatment triply replicated. The herbicides were sprayed using standard flat fan nozzles moved perpendicular to the sown lines using water spray volumes of about 296 L/ha.
(§3) Assessments of weed control were made by visual inspection 36 days after herbicide treatment. A visual rating system was used based on a percentage scale from 0 to 100% compared to an adjacent untreated control plot. On this scale 0 represents no visual differences relative to an untreated control and 100 represents complete control of the given weed species.

Stellaria media = assay: Test H weed control, field plots; format: in vivo; details: 36 days after treatment; g a.i./ha: tribenuron-methyl 22.5, metsulfuron-methyl 6, ethametsulfuron-methyl 16, imazapyr isopropylamine salt 15, aclonifen 1200
Description: as §2, §3

BC4-M5M7 × PHA155 = assay: Test C field phytotoxicity, BC4-M5M7 × PHA155; format: in vivo, sunflower
Description: A rating of 0% phytotoxicity means no crop injury.

[2] = post-emergence T1 11.25 + T3 11.25 g a.i./ha
[3] = post-emergence T1 22.5 g a.i./ha
[4] = post-emergence T2 11.25 g a.i./ha
[5] = post-emergence T2 22.5 g a.i./ha
[6] = post-emergence T3 11.25 g a.i./ha
[7] = post-emergence T3 22.5 g a.i./ha
[8] = seed coating 11.25 + post-emergence T2 11.25 g a.i./ha
[9] = seed coating 11.25 + post-emergence T3 11.25 g a.i./ha
[10] = post-emergence T1 3 + T3 3 g a.i./ha

SMILES: COC(=O)c1ccccc1S(=O)(=O)NC(=O)N(C)c1nc(C)nc(OC)n1 [Tribenuron-methyl, tribenuron-methyl]
- Maximum Phytotoxicity (M5M11): 0%
- Maximum Phytotoxicity (M5M12): 7.5%
- rate needed for good control of Orobanche ([1]; greenhouse test, Hybrid 7 and Hybrid 12): 22.5 g a.i./ha
- % Control in Hybrid 7 [1, 2]: 85%
- % Control in Hybrid 12 [1, 2]: 85%
- % Control in Hybrid 7 [1, 3]: 72%
- % Control in Hybrid 12 [1, 3]: 73%
- % Control in Hybrid 7 [1, 4]: 77%
- % Control in Hybrid 12 [1, 4]: 73%
- % Control in Hybrid 7 [1, 5]: 82%
- % Control in Hybrid 12 [1, 5]: 83%
- % Control in Hybrid 7 [1, 6]: 78%
- % Control in Hybrid 12 [1, 6]: 80%
- % Control in Hybrid 7 [1, 7]: 87%
- % Control in Hybrid 12 [1, 7]: 87%
- % Control in Hybrid 7 [1, 8]: 77%
- % Control in Hybrid 12 [1, 8]: 78%
- % Control in Hybrid 7 [1, 9]: 82%
- % Control in Hybrid 12 [1, 9]: 83%
- weed control, visual rating: Chenopodium album (Chenopodium album): 100%
- weed control, visual rating: Stellaria media (Stellaria media): 100%

SMILES: COC(=O)c1cccc(C)c1S(=O)(=O)NC(=O)Nc1nc(OCC(F)(F)F)nc(N(C)C)n1 [Triflusulfuron-methyl, triflusulfuron-methyl]
- Phytotoxicity Rating After Treatment (BC4-M5M7 × PHA155; postemergence 7.5 g a.i./ha, 7 DAT): 38%
- Phytotoxicity Rating After Treatment (BC4-M5M7 × PHA155; postemergence 7.5 g a.i./ha, 15 DAT): 40%
- Phytotoxicity Rating After Treatment (BC4-M5M7 × PHA155; postemergence 7.5 g a.i./ha, 30 DAT): 28%
- Phytotoxicity Rating After Treatment (BC4-M5M7 × PHA155; postemergence 15 g a.i./ha, 7 DAT): 57%
- Phytotoxicity Rating After Treatment (BC4-M5M7 × PHA155; postemergence 15 g a.i./ha, 15 DAT): 53%
- Phytotoxicity Rating After Treatment (BC4-M5M7 × PHA155; postemergence 15 g a.i./ha, 30 DAT): 40%

SMILES: COC(=O)c1ccccc1S(=O)(=O)NC(=O)Nc1nc(C)nc(OC)n1 [Metsulfuron-methyl, metsulfuron-methyl]
- % Control in Hybrid 7 [1, 10]: 92%
- % Control in Hybrid 12 [1, 10]: 90%
- % Control in Hybrid 7 ([1]; post-emergence T1 3 g a.i./ha): 65%
- % Control in Hybrid 12 ([1]; post-emergence T1 3 g a.i./ha): 63%
- % Control in Hybrid 7 ([1]; post-emergence T3 3 g a.i./ha): 93%
- % Control in Hybrid 12 ([1]; post-emergence T3 3 g a.i./ha): 95%
- control of Orobanche ([1]; single late post-emergence treatment with 3 g a.i./ha): excellent control
- weed control, visual rating: Chenopodium album (Chenopodium album): 100%
- weed control, visual rating: Stellaria media (Stellaria media): 100%
